Reference: US20090184006A1, “METHOD FOR THE DETERMINATION OF THE ACTIVITY OF THE ORGANIC CATION TRANSPORTER” (SANOFI-AVENTIS, priority 2006, published 2009)
pIC50: −log10 of the molar value.

Key:
hOCT2 (SLC22A2) = biological target: T1, hOCT2 (SLC22A2) (Homo sapiens, UniProt O15244, S270A); test: cell free electrophysiological sensor chip assay, inhibition of choline-induced current, hOCT2 CHO cell membranes; format: biochemical; conditions: 30 mM choline as substrate (FIG. 4B legend), pH 7.4, read-out: IC50 of TBA of hOCT2
T1 construct: expressed in transfected cells; host or cells: CHO cells, stably transfected; membrane fragments immobilised on the sensor chip
T1 sequence (O15244 1-555 S270A): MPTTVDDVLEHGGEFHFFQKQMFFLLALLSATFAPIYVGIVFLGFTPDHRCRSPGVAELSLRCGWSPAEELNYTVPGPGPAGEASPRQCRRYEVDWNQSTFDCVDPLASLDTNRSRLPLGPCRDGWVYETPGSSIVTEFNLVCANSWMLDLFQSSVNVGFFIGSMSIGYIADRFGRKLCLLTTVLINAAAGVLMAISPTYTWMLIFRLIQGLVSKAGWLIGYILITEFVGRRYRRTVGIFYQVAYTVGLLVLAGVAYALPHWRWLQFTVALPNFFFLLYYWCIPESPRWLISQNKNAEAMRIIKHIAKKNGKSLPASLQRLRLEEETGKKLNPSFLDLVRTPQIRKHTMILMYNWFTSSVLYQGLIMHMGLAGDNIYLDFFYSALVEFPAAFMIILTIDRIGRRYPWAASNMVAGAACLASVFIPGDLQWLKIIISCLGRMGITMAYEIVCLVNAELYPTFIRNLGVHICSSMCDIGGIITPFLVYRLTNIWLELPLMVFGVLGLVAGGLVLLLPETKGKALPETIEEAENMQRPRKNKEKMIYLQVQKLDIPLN
Experimental: IC50 was determined using 30 mM choline as a substrate.
(§1) After harvesting the cells from a virally transfected Sf9 or HighFive suspension cell line or an stably transfected adherent CHO cell line via centrifugation, aliquots of approx. 2 g wet weight cells were quick-frozen in liquid nitrogen and stored at −80° C. for further preparation.
(§2) The membrane fragments were prepared by cell rapture. Cells were homogenized by the nitrogen cell disruption method utilizing a Parr Cell Disruption Bomb (Parr Instrument Company, Illinois, USA) or the Dounce homogenisation method utilizing a Dounce Homogenisator (7 ml from Novodirect GmbH, Kehl/Rhein, Germany) and the suspension centrifuged 10 min at 4° C. and 680 g and 10 min at 4° C. and 6100 g. The supernatants were collected and again centrifuged for 1 h at 4° C. and 100,000 g in SW41 swing-out rotor.
(§3) Biosensors were prepared according to the following protocol. • 1. Addition of 30 μl mercaptane solution (2% mercaptane in isopropanol) to biosensor • 2. Incubation time: 15 min • 3. Rinsing with 3×70 μl isopropanol • 4. Vacuum dry biosensor • 5. Drying time: 30 min • 6. […]
(§4) For the determination of its activity, the OCT protein was treated consecutively with a washing, non-activating and activating solution and the electrical current was measured when changing from charging to activating treatment. […]

rOCT2 (slc22a2) = biological target: T2, rOCT2 (slc22a2) (Rattus norvegicus, UniProt Q9R0W2); test: cell free electrophysiological sensor chip assay, inhibition of choline-induced current, rOCT2 CHO cell membranes; format: biochemical; conditions: 10 mM choline as substrate, pH 7.4, read-out: IC50 of TBA of rOCT2
T2 construct: expressed in transfected cells; host or cells: CHO cells, stably transfected; membrane fragments immobilised on the sensor chip
T2 sequence (Q9R0W2 with tags, fused parts or gaps limits assumed): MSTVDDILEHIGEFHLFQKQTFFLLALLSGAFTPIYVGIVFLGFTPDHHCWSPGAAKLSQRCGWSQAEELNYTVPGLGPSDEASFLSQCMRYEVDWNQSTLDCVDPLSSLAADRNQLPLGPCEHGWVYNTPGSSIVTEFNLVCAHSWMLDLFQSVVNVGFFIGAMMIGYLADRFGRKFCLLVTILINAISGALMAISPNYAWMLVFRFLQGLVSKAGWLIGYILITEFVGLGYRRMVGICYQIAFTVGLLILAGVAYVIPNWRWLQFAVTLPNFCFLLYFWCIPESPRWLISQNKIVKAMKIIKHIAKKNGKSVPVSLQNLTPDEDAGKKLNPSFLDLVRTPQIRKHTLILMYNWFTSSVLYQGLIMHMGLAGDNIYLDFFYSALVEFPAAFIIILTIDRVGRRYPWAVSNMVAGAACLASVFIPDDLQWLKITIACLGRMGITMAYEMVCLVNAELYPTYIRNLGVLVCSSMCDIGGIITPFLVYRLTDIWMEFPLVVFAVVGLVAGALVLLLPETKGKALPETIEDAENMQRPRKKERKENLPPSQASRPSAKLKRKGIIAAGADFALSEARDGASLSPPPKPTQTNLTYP
Experimental: IC50 was determined using 10 mM choline as a substrate.
as §1, §2, §3, §4

pIC50 (hOCT2 (SLC22A2)): 5.54
pIC50 (rOCT2 (slc22a2)): 5.46
Compound: CCCC[N+](CCCC)(CCCC)CCCC [TBA]
